Bridge positions count the residues as written; N and C are the ends. Ends that are not written are not given here. Peptide text beside a SMILES is read from it. A value given as a limit tells only on which side of the number the result lay.

One experiment deals with NIH/Swiss mice. Kind of experiment: acute food intake assay in overnight-fasted mice, IP injection. It is filed as in vivo, mouse. The method, then: The effect of AFP-6 on food intake was investigated using an acute food intake assay. This assay measured food consumption in lean, group-housed, overnight-fasted NIH/Swiss mice. 12 mice were housed 3 to a cage. The sample compound, in this case AFP-6, was injected IP in mice and food intake was measured during the next 2-hours. Decreased, as well as increased, food intake can be measured. Testing various doses of the compound generated ED50's. The assay was performed as follows: 1. Remove food (water ad libitum) at 5:00 pm the evening before the study. 2. Weigh food pellets (3 pellets/cage). 3. Inject animals intraperitoneally with 200 ul of appropriate solution, t=0. 4. Immediately add pre-weighed food to each cage (away from water bottle spout) and allow animals to feed undisturbed. 5. At 30, 60, and 120 minutes, collect and weigh food. 6. Analyze data. Data points represent mean ±sd of n=12.
Twelve mice were injected IP at t=0 for each dose, 0.3, 1, 3, 10, 30, 100, or 300 nmol/kg of AFP-6 (Amylin Pharmaceuticals, Inc.) (n=12/group). Food was introduced immediately after injection and amount consumed measured at t=30, 60, and 120 min.

The target of the next experiment is T1, CGRP receptors (Homo sapiens, UniProt O60894+Q16602).
T1 construct: membranes prepared from SK-N-MC cells, known to express CGRP receptors; endogenous in cells; host or cells: SK-N-MC cell membranes
Kind of experiment: CGRP radioligand binding assay (125I-hCGRP, SK-N-MC cell membranes). The following applies: Table 6.

Another experiment has as its target adrenomedullin receptor (Homo sapiens, UniProt O60895+Q16602). Kind of experiment: adrenomedullin (ADM) receptor binding assay. The following applies: Table 6.
The target of another experiment is T2, calcitonin receptor (Rattus norvegicus, UniProt P32214).
T2 sequence (P32214 25-516): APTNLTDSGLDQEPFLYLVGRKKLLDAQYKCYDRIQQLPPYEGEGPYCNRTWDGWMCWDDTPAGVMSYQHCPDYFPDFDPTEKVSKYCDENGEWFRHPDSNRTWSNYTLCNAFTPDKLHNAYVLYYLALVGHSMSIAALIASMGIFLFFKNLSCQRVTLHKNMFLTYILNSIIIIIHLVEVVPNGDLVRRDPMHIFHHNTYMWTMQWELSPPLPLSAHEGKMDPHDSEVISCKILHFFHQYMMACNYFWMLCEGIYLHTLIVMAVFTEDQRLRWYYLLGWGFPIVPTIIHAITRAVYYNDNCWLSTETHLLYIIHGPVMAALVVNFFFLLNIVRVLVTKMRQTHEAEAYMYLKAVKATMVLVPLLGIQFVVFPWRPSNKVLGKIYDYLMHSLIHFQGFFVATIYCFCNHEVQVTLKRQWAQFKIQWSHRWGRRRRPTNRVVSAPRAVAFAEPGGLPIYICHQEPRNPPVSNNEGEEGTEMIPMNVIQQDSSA
Kind of experiment: calcitonin receptor binding assay (rCalcitonin RBA). The following applies: Table 6; read-out: CT receptor binding.

In the next experiment the target is T3, amylin receptors (Rattus norvegicus, UniProt P32214).
T3 construct: This basal forebrain tissue, containing the nucleus accumbens and surrounding regions, was weighed and homogenized; from tissue; host or cells: rat basal forebrain (nucleus accumbens) membranes, male Sprague-Dawley rats
T3 sequence (P32214 25-516): T2 sequence (P32214 25-516)
In words: amylin radioligand binding assay (125I-rat amylin, nucleus accumbens membranes). The following applies: Table 6; read-out: Amylin receptor binding. The method, then: Unlabeled peptides were obtained from BACHEM Inc. (Torrance, Calif.).
Male Sprague-Dawley® rats (200-250) grams were sacrificed by decapitation. Brains were removed and place in cold phosphate-buffered saline (PBS). From the ventral surface, cuts were made rostral to the hypothalamus, bounded laterally by the olfactory tracts and extending at a 45° angle medially from these tracts. […] Membranes were washed three times in fresh buffer by centrifugation for 15 minutes at 48,000×g. The final membrane pellet was resuspended in 20 mM HEPES buffer containing 0.2 mM phenylmethylsulfonyl fluoride (PMSF).
Solutions were incubated for 60 minutes at 2 C. […] Filters were washed immediately before filtration with 5 ml cold PBS, and immediately after filtration with 15 ml cold PBS. […] Competition curves were generated by measuring binding in the presence of 10^−12 to 10^−6 M unlabeled test compound and were analyzed by nonlinear regression using a 4-parameter logistic equation (INPLOT program; […] Software, San Diego, Calif.).

T1 sequence (Q16602 23-461): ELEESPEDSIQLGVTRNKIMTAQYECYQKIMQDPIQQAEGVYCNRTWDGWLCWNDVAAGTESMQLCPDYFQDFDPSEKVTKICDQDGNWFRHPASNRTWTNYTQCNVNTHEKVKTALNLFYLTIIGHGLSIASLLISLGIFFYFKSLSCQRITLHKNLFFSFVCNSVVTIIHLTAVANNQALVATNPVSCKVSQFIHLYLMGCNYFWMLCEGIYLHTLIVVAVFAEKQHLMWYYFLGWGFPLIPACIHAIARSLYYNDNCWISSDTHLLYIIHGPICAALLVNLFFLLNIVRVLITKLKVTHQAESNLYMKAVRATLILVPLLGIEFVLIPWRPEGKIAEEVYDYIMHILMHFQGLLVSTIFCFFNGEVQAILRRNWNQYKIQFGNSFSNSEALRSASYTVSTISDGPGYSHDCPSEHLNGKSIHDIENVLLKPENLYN
T1 sequence (O60894 27-148): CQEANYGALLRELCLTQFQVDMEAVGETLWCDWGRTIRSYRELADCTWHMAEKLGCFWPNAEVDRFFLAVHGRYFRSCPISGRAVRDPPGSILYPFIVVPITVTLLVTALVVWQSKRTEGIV
adrenomedullin receptor, sequence (Q16602 23-461): as the sequence (Q16602 23-461) above
adrenomedullin receptor, sequence (O60895 43-175): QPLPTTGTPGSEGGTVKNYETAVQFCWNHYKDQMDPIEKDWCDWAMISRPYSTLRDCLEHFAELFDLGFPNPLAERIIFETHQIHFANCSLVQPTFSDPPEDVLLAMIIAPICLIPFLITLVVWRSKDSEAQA

Take “r/h Adrenomedullin: Amylin Family polypeptide of Table 3; r/h not resolved per value”: the “FI 30 min ED50” value in the experiment with NIH/Swiss mice (food intake, 30 min) stood at 18 nmol/kg. Besides, the “FI 60 min ED50” value with NIH/Swiss mice (food intake, 60 min) amounted to 13 nmol/kg.

With `CC(C)C[C@H](NC(=O)[C@H](CCC(N)=O)NC(=O)[C@H](Cc1c[nH]c2ccccc12)NC(=O)[C@H](CC(C)C)NC(=O)[C@H](CCCNC(=N)N)NC(=O)[C@H](Cc1c[nH]cn1)NC(=O)[C@H](CO)NC(=O)[C@H](CC(C)C)NC(=O)[C@H](CC(N)=O)NC(=O)[C@H](CCC(N)=O)NC(=O)[C@@H](NC(=O)[C@H](CCC(N)=O)NC(=O)[C@@H]1CSSC[C@H](NC(=O)[C@@H](N)C(C)C)C(=O)N[C@@H](CC(N)=O)C(=O)N[C@@H]([C@@H](C)O)C(=O)N[C@@H](C)C(=O)N[C@@H]([C@@H](C)O)C(=O)N1)C(C)C)C(=O)N[C@@H](CCCNC(=N)N)C(=O)N[C@@H](CCC(N)=O)C(=O)N[C@@H](CC(=O)O)C(=O)N[C@@H](CO)C(=O)N[C@@H](C)C(=O)N1CCC[C@H]1C(=O)N[C@H](C(=O)N[C@@H](CC(=O)O)C(=O)N1CCC[C@H]1C(=O)N[C@@H](CO)C(=O)N[C@@H](CO)C(=O)N1CCC[C@H]1C(=O)N[C@@H](Cc1c[nH]cn1)C(=O)N[C@@H](CO)C(=O)N[C@@H](Cc1ccc(O)cc1)C(N)=O)C(C)C` [compound 30] (H-VCNTATCQVQNLSHRLWQLRQDSAPVDPSSPHSY-NH2; disulfide 2-7 (inferred)), the values for the IC50 on CGRP receptors, on adrenomedullin receptor and on calcitonin receptor were 37 nM, at least 1000 nM and 128 nM, respectively.

In the case of `CC(C)C[C@@H]1NC(=O)[C@H](CC(N)=O)NC(=O)CNC(=O)[C@@H](NC(=O)CN)CSSC[C@@H](C(=O)N[C@@H](CCC(N)=O)C(=O)N[C@H](C(=O)N[C@@H](CCC(N)=O)C(=O)N[C@@H](CC(N)=O)C(=O)N[C@@H](CC(C)C)C(=O)N[C@@H](CO)C(=O)N[C@@H](Cc2c[nH]cn2)C(=O)N[C@@H](CCCNC(=N)N)C(=O)N[C@@H](CC(C)C)C(=O)N[C@@H](Cc2c[nH]c3ccccc23)C(=O)N[C@@H](CCC(N)=O)C(=O)N[C@@H](CC(C)C)C(=O)N[C@@H](CCCNC(=N)N)C(=O)N[C@@H](CCC(N)=O)C(=O)N[C@@H](CC(=O)O)C(=O)N[C@@H](CO)C(=O)N[C@@H](C)C(=O)N2CCC[C@H]2C(=O)N[C@H](C(=O)N[C@@H](CCC(=O)O)C(=O)N2CCC[C@H]2C(=O)N[C@@H](CO)C(=O)N[C@@H](CO)C(=O)N2CCC[C@H]2C(=O)N[C@@H](Cc2c[nH]cn2)C(=O)N[C@@H](CO)C(=O)N[C@@H](Cc2ccc(O)cc2)C(N)=O)C(C)C)C(C)C)NC(=O)[C@H]([C@@H](C)O)NC(=O)[C@H](CO)NC1=O` [compound 39] (H-GCGNLSTCQVQNLSHRLWQLRQDSAPVEPSSPHSY-NH2; disulfide 2-8 (inferred); N-terminus assumed), the IC50 was above 1000 nM on CGRP receptors, at least 1000 nM on adrenomedullin receptor and 31 nM on calcitonin receptor.

In the case of “Rat calcitonin: rat calcitonin, reference peptide in the food intake assay (CGNLSTCMLGTYTQDLNKFHTFPQTSIGVGAP; ends and bridges not checked; cysteine pairing not given here; UniProt P01257 85-116, looked up)”, the “inhibition of food intake” value with NIH/Swiss mice (0.63 mg/kg, mice, not significant) was determined as 16%.

`CC(C)C[C@H](NC(=O)[C@H](CCC(N)=O)NC(=O)[C@H](Cc1c[nH]c2ccccc12)NC(=O)[C@H](CC(C)C)NC(=O)[C@H](CCCNC(=N)N)NC(=O)[C@H](Cc1c[nH]cn1)NC(=O)[C@H](CO)NC(=O)[C@H](CC(C)C)NC(=O)[C@H](CC(N)=O)NC(=O)[C@H](CCC(N)=O)NC(=O)[C@@H](NC(=O)[C@H](CCC(N)=O)NC(=O)[C@@H]1CSSC[C@H](NC(=O)CN)C(=O)N[C@@H](C(C)C)C(=O)N[C@@H](CC(C)C)C(=O)NCC(=O)N[C@@H]([C@@H](C)O)C(=O)N1)C(C)C)C(=O)N[C@@H](CCCNC(=N)N)C(=O)N[C@@H](CCC(N)=O)C(=O)N[C@@H](CCC(=O)O)C(=O)N[C@@H](CO)C(=O)N[C@@H](C)C(=O)N1CCC[C@H]1C(=O)N[C@H](C(=O)N[C@@H](CCC(=O)O)C(=O)N1CCC[C@H]1C(=O)N[C@@H](CO)C(=O)N[C@@H](CO)C(=O)N1CCC[C@H]1C(=O)N[C@@H](Cc1c[nH]cn1)C(=O)N[C@@H](CO)C(=O)N[C@@H](Cc1ccc(O)cc1)C(N)=O)C(C)C` [compound 40] (H-GCVLGTCQVQNLSHRLWQLRQESAPVEPSSPHSY-NH2; disulfide 2-7): the IC50 at CGRP receptors was above 1000 nM; on amylin receptors it was above 1000 nM; on adrenomedullin receptor it was at least 1000 nM; at calcitonin receptor, above 1000 nM.

For `CC(C)C[C@H](NC(=O)[C@H](CCC(N)=O)NC(=O)[C@H](Cc1c[nH]c2ccccc12)NC(=O)[C@H](CC(C)C)NC(=O)[C@H](CCCNC(=N)N)NC(=O)[C@H](Cc1c[nH]cn1)NC(=O)[C@H](CO)NC(=O)[C@H](CC(C)C)NC(=O)[C@H](CC(N)=O)NC(=O)[C@H](CCC(N)=O)NC(=O)[C@@H](NC(=O)[C@H](CCC(N)=O)NC(=O)[C@@H]1CSSC[C@H](NC(=O)CNC(=O)[C@@H](N)C(C)C)C(=O)N[C@@H](C(C)C)C(=O)N[C@@H](CC(C)C)C(=O)NCC(=O)N[C@@H]([C@@H](C)O)C(=O)N1)C(C)C)C(=O)N[C@@H](CCCNC(=N)N)C(=O)N[C@@H](CCC(N)=O)C(=O)N[C@@H](CC(=O)O)C(=O)N[C@@H](CO)C(=O)N[C@@H](C)C(=O)N1CCC[C@H]1C(=O)N[C@H](C(=O)N[C@@H](CCC(=O)O)C(=O)N1CCC[C@H]1C(=O)N[C@@H](CO)C(=O)N[C@@H](CO)C(=O)N1CCC[C@H]1C(=O)N[C@@H](Cc1c[nH]cn1)C(=O)N[C@@H](CO)C(=O)N[C@@H](Cc1ccc(O)cc1)C(N)=O)C(C)C` [compound 36] (H-VGCVLGTCQVQNLSHRLWQLRQDSAPVEPSSPHSY-NH2; disulfide 3-8 (inferred)), the IC50 on amylin receptors is 39 nM; at adrenomedullin receptor it was at least 1000 nM; on calcitonin receptor, 198 nM.

For `CSCC[C@H](NC(=O)[C@H](CC(C)C)NC(=O)[C@H](CCC(N)=O)NC(=O)[C@H](Cc1c[nH]c2ccccc12)NC(=O)[C@H](CC(C)C)NC(=O)[C@H](CCCNC(=N)N)NC(=O)[C@H](Cc1c[nH]cn1)NC(=O)[C@H](CO)NC(=O)[C@H](CC(C)C)NC(=O)[C@H](CC(N)=O)NC(=O)[C@H](CCC(N)=O)NC(=O)[C@@H](NC(=O)[C@H](CCC(N)=O)NC(=O)[C@@H]1CSSC[C@H](NC(=O)CNC(=O)[C@@H](N)C(C)C)C(=O)N[C@@H](C(C)C)C(=O)N[C@@H](CC(C)C)C(=O)NCC(=O)N[C@@H]([C@@H](C)O)C(=O)N1)C(C)C)C(=O)NCC(=O)N1CCC[C@H]1C(=O)N[C@@H](C)C(=O)NCC(=O)N[C@@H](CCCNC(=N)N)C(=O)N[C@@H](CCC(N)=O)C(=O)N[C@@H](CC(=O)O)C(=O)N[C@@H](CO)C(=O)N[C@@H](C)C(=O)N1CCC[C@H]1C(=O)N[C@H](C(=O)N[C@@H](CC(=O)O)C(=O)N1CCC[C@H]1C(=O)N[C@@H](CO)C(=O)N[C@@H](CO)C(=O)N1CCC[C@H]1C(=O)N[C@@H](Cc1c[nH]cn1)C(=O)N[C@@H](CO)C(=O)N[C@@H](Cc1ccc(O)cc1)C(N)=O)C(C)C` [compound 2], the IC50 on amylin receptors came out at 12 nM; on adrenomedullin receptor, 6.4 nM; at calcitonin receptor, 24 nM.

The values above are taken from US7928060B2, “Amylin family polypeptide-6 (AFP-6) analogs and methods of making and using them” (Amylin Pharmaceuticals, Inc., priority 2004, dated 2011).
